The results in this text go back to patent publication US7736909B2, “Methods and compositions comprising capture agents” (Board of Regents, the University of Texas System, priority 2003, dated 2010).

Where two headings read alike, the source gives them in different places. Non-standard residues stand in square brackets, D forms with d. Residues, ends and D or L forms follow the SMILES beside them. N(4-Sulfamoylphenethyl)Gly = NS(=O)(=O)c1ccc(CCNCC(=O)O)cc1; Gly(N-piperonyl) = O=C(O)CNCc1ccc2c(c1)OCO2; Gly(N-CH2CH2OH) = O=C(O)CNCCO; Nlys = NCCCCNCC(=O)O

One data set deals with ubiquitin (Homo sapiens, UniProt P0CG47). Description: pull-down of unlabeled ubiquitin by Tentagel-displayed peptide, probed with Texas Red-labeled anti-ubiquitin antibody. The format is binding. Conditions: semi-quantitative. As for the experimental part: To study the behavior of the ubiquitin-targeted chimeric binding element in capture assays, the peptide was synthesized on Tentagel and employed in “pull-down” assays. Beads displaying NH2-[…], a control peptide NH2-[…], or no peptide at all, were incubated with the indicated concentration of unlabeled ubiquitin in the presence of a 1000-fold excess of E. coli proteins (FIG. 26B). After thorough washing, the beads were then probed with Texas Red-labeled anti-ubiquitin-labeled polyclonal antibodies to visualize the bound protein. […] In all cases, the level of fluorescence from the chimeric binding element-displaying beads was much higher than from either set of control beads (see FIG. 26C for a direct comparison).

The target in data set [1] is T1, MBP-Mdm2 (UniProt P0AEX9+Q00987).
T1 construct: The domain of the human Mdm2 protein represented by residues 1-188 is a structurally characterized monomer; made in house; host or cells: E. coli BL21-RIL
Description: isothermal titration calorimetry (ITC). The format is binding, human. Here is the method: (§1) Isothermal titration calorimetry (ITC). ITC experiments were conducted on a MicroCal VP-ITC instrument. For the titration, 70 μM MBP-hmdm2 or 30 μM GST in PBS+10% DMSO was taken in the sample cell. To this, 15 μl aliquots of the peptoid solution in the same buffer were added from a computer-controlled 250 μl rotating syringe. The syringe was set at 400 rpm with intervals of 3 minutes between injections to attain baseline stabilization. The heat absorbed or released accompanying the titration was recorded as differential power (DP) by the instrument software. Experiments were carried out with C values between 1 and 400. The total heat recorded was then fitted via a non-linear least-squares minimization method. Titration of the ligand solution with the buffer alone gave the heats of dilution. Titration with MBP alone was recorded under identical conditions.
On the technique in general: Isothermal titration calorimetry measures the heat released or taken up as one component is titrated into another.

A further data set addresses T2, GST (Schistosoma japonicum, UniProt P08515).
T2 construct: made in house; host or cells: E. coli BL21-RIL
As to the kind of experiment: isothermal titration calorimetry (ITC). The format is binding. The following applies: in solution; read-out: equilibrium dissociation constant, ITC. Here is the method: as §1

The next data set deals with MBP (Escherichia coli, UniProt P0AEX9). Description: isothermal titration calorimetry (ITC), MBP alone. The format is binding. The following applies: in solution. As for the experimental part:
as §1

The target of data set [2] is T1, MBP-Mdm2. The class given is binding, human. Here is the method: Five milligrams of TentaGel beads (displaying the respective hit sequences, Nlys-Nbsa-Nlys-Nser-Nbsa-Npip-Nbsa-Npip-CONH2 and Nbsa-Nlys-Nbsa-Npip-Nlys-CONH2 or a random sequence Npip-Nser-Nbsa-Nall-Nlys-Npip-CONH2) were equilibrated in phosphate-buffered saline (PBS) for 60 minutes. The buffer was removed and the beads were blocked with 2% BSA for 60 minutes to saturate any non-specific binding sites. The beads were then washed with PBS (3 times), and incubated with 500 nM (unless indicated otherwise) of a Texas Red-labeled protein (MBP-MDM2 or GST) in 2% BSA (in 1×TBST buffer), in a 300 μL volume for 60 minutes. The beads were washed with TBST six times to remove any unbound protein and photographed under a fluorescence microscope. Studies that employed native (unlabeled) proteins were performed as follows. Ten milligrams of beads displaying the peptoid were exposed to 1 μM protein in the presence of 1000-fold excess E. coli lysate, 0.2% Tween-20 and 0.2 M NaCl in a total volume of 2 ml at RT for 2 hrs. The beads were washed three times with TBST (20 mM Tris buffered saline+0.1% Tween-20). Ten microliters of 2×SDS-PAGE loading dye was then added directly to these beads and they were boiled for 10 mins.
To probe the binding chemistry of chimeric binding ligand formula 2 on a solid support, which is more relevant to the issue of creating high affinity protein capture agents, TentaGel beads were prepared that display either chalcone formula 1 alone, the 10 mer peptoid NH2-Nlys-Npip-Nlys-Nser-Nlys-Nlys-Nlys-Nlys-Npip-Npip alone, or the chalcone-peptoid chimeric binding element of formula 2. In the experiment shown in FIG. 24D, the beads and the Texas Red-labeled proteins (100 nM) indicated in the figure were incubated under demanding buffer conditions (1M NaCl and 1% Tween-20 in the presence of a 100-fold excess of E. coli proteins), then washed thoroughly. Two populations of beads were then mixed in a 1:1 ratio and photographed under a fluorescence microscope to provide a direct comparison.
After thorough washing, the beads were photographed in the fluorescence microscope using identical settings in each case.

For a further data set, the target named is T3, His6Gal80 (Saccharomyces cerevisiae, UniProt P04387).
T3 construct: His6 (N); made in house; host or cells: E. coli
T3 sequence (P04387 1-435): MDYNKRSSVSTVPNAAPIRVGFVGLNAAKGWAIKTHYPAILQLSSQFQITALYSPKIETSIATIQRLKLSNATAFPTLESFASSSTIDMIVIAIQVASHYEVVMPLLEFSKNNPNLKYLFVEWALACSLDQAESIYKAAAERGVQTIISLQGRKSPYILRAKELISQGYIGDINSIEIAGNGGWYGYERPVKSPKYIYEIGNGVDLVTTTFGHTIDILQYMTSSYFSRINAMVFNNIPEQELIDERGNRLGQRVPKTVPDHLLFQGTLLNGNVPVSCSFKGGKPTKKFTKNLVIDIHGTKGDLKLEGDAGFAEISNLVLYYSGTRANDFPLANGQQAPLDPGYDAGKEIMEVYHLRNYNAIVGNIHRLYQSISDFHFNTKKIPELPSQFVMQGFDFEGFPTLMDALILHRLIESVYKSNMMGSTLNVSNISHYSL
Description: lysate experiment: specificity of capture from E. coli lysate (silver stain). The format is binding. The following applies: Gal80 5% of total protein, silver staining. As for the experimental part: Lysate Experiment. E. coli lysate was prepared by growing BL21 cells to an OD600 of 0.8. Cells were lysed by sonication in PBS buffer. After sonication, triton X-100 was added to 1%. His6Gal80 was doped into the E. coli lysate (67 μg/mL) such that it constituted 5% of the total protein. Approximately 0.02 g of Tentagel beads on which the Gal80-binding peptide had been synthesized and deprotected were added to 300 μL of the E. coli lysate containing His6Gal80 and incubated for 2 hours at 4° C. The beads were washed four times for ten minutes each time at 4 with PBS buffer+1% triton X-100 at 150 mM NaCl at 4° C. and then twice with PBS buffer. GSTGal4 AD (activation domain) was pre-incubated with glutathione sepharose beads and then used as a positive control to pull-down His6Gal80 from the lysate under the same conditions. Gel loading dye was added directly to the beads, loaded onto a SDS polyacrylamide gel and analyzed by silver stain.
To address this point, the Gal80 bp/Gal80 pair was again employed. His6Gal80 was doped into an E. coli lysate such that Gal80 represented 5% of the total protein concentration. This solution was then incubated with the Tentagel-bound Gal80 bp followed by thorough washing to remove any unbound material. The composition of the proteins captured by the peptide was then addressed by SDS-PAGE followed by silver staining. […]

Another data set is described as follows: solubility observations. The class given is physicochemical.

T1 sequence (Q00987 whole entry, looked up, other chains not shown, the tested form may be a part): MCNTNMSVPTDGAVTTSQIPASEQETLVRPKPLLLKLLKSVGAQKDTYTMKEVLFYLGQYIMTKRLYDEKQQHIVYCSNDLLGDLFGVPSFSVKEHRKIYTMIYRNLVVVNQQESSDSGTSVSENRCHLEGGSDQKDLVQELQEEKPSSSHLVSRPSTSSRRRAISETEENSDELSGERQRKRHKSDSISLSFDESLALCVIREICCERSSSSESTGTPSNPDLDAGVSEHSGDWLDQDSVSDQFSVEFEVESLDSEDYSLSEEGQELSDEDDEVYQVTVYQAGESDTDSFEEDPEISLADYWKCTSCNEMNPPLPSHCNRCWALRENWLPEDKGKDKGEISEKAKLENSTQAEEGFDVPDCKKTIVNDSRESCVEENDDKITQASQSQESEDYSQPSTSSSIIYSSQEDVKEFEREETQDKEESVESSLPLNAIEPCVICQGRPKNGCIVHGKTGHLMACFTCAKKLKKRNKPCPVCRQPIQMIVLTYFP
T2 sequence (P08515 whole entry): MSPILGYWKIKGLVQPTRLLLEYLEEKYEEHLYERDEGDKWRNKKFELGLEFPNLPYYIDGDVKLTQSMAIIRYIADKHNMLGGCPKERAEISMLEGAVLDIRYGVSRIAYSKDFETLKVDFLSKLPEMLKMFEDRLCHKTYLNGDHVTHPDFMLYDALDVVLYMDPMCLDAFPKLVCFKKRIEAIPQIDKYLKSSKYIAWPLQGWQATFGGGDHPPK

Take `CC(C)C[C@H](NC(=O)CNC(=O)[C@@H](N)Cc1c[nH]c2ccccc12)C(=O)N[C@@H](CCCNC(=N)N)C(=O)N[C@@H](C)C(=O)N[C@@H](CC(C)C)C(=O)N[C@@H](CCC(=O)O)C(=O)N[C@@H](CO)C(=O)N[C@@H](CCCNC(=N)N)C(=O)N[C@@H](Cc1c[nH]c2ccccc12)C(=O)N[C@@H](CC(=O)O)C(=O)N[C@@H](CCCNC(=N)N)C(=O)N[C@@H](Cc1ccc(O)cc1)C(=O)N[C@@H](Cc1ccc(O)cc1)C(=O)N[C@@H](Cc1ccccc1)C(=O)O` (H-WGLRALESRWDRYYF-OH; C-terminus assumed): the “functional dissociation constant of immobilized chimeric binding element” value on ubiquitin was “at least in the low nanomolar range”.
`NCCCCNCC(=O)N(CC(=O)N(CCCCN)CC(=O)N(CCO)CC(=O)N(CCCCN)CC(=O)N(CCCCN)CC(=O)N(CCCCN)CC(=O)N(CCCCN)CC(=O)N(CC(=O)N(CC(N)=O)Cc1ccc2c(c1)OCO2)Cc1ccc2c(c1)OCO2)Cc1ccc2c(c1)OCO2` [NH2-Nlys-Npip-Nlys-Nser-Nlys-Nlys-Nlys-Nlys-Npip-Npip] (H-[Nlys][Gly(N-piperonyl)][Nlys][Gly(N-CH2CH2OH)][Nlys][Nlys][Nlys][Nlys][Gly(N-piperonyl)][Gly(N-piperonyl)]-NH2; N-terminus and C-terminus assumed): the Kd on MBP-Mdm2 [1] amounted to 378 µM.
Turning to `NCCCCN(CC(N)=O)C(=O)CN(Cc1ccc2c(c1)OCO2)C(=O)CN(CCc1ccc(S(N)(=O)=O)cc1)C(=O)CN(CCCCN)C(=O)CNCCc1ccc(S(N)(=O)=O)cc1` [Nbsa-Nlys-Nbsa-Npip-Nlys-CONH2] (H-[N(4-Sulfamoylphenethyl)Gly][Nlys][N(4-Sulfamoylphenethyl)Gly][Gly(N-piperonyl)][Nlys]-NH2), on GST, the Kd worked out at 62 µM.
As for `NCCCCNCC(=O)N(CCc1ccc(S(N)(=O)=O)cc1)CC(=O)N(CCCCN)CC(=O)N(CCO)CC(=O)N(CCc1ccc(S(N)(=O)=O)cc1)CC(=O)N(CC(=O)N(CCc1ccc(S(N)(=O)=O)cc1)CC(=O)N(CC(N)=O)Cc1ccc2c(c1)OCO2)Cc1ccc2c(c1)OCO2` [Nlys-Nbsa-Nlys-Nser-Nbsa-Npip-Nbsa-Npip] (H-[Nlys][N(4-Sulfamoylphenethyl)Gly][Nlys][Gly(N-CH2CH2OH)][N(4-Sulfamoylphenethyl)Gly][Gly(N-piperonyl)][N(4-Sulfamoylphenethyl)Gly][Gly(N-piperonyl)]-NH2), the figures for the Kd on MBP-Mdm2 [1] and at MBP were 37 µM and above 1000 µM, respectively. Further, at MBP-Mdm2 [2] (native protein 1 μM, 1000-fold excess E. coli proteins, Western blot), the “MBP-Mdm2 protein retained by immobilized peptoid” value is reported as “about 10%”.
Take DLQRDTNKGFHEMFDWDYQN [Ga180bpscram]: the “proteins retained from Gal80-doped E. coli lysate” value with His6Gal80 is “No detectable proteins were retained”.
Take “NH2-Lys(Chalcone)-Nlys-Npip-Nlys-Nser-Nlys-Nlys-Nlys-Nlys-Npip-Npip [formula 2]”: the Kd at MBP-Mdm2 [1] (in solution, read-out: equilibrium dissociation constant (KD), ITC) was 1.3 µM; at MBP, above 6000 µM. Further, at MBP-Mdm2 [1] (solution, ITC), the “improvement in affinity relative to parent compound formula 1” value is on record as “at least 170 fold”. Besides, the “solid phase MBP-Mdm2 affinity relative to components” value on MBP-Mdm2 [2] (100 nM protein, 1M NaCl, 1% Tween-20, 100-fold excess E. coli proteins) is given as “higher affinity for Mdm2 than does either individual component of the chimera”. Moreover, the “lowest protein concentration at which capture of Mdm2 was apparent” value on MBP-Mdm2 [2] (150 mM NaCl, 0.1% detergent, 100-fold excess E. coli proteins) is 10 nM.
As for “Nmba-Nbsa-Nleu-Nlys-Npip-Nmba-Nleu-Nleu [random peptoid, reference compound]”, on MBP-Mdm2 [2] (1000-fold excess E. coli proteins, Western blot), the “native MBP-Mdm2 retained” value is on record as “No detectable MBP-Mdm2 protein was retained”.
Turning to “PREbp: Pre1 binding peptide isolated by phage display, free synthetic peptide before six polar amino acids were added (SHSTARGEQERAAVYLWFTYDHRSER)”, the solubility result in “solubility observations” is listed as “insoluble”.
